Test results as given in the OPERA property sets (Mansouri et al. 2018).
Converted amounts (≈) assume the structure as drawn.

Settings: for solubility: 21 °C

logP | solubility [µM] | Structure (SMILES)
1.94 | 2290 (≈ 550 µg/mL) | CSCOC(=O)c1ccccc1OC(C)=O
1.42 | – | CC(=O)OCOC(=O)c1ccccc1OC(C)=O
0.11 | – | CC(=O)Oc1ccccc1C(=O)OCS(C)=O (stereo not given)
0.38 | – | CC(=O)Oc1ccccc1C(=O)OCC(=O)N(C)C
1.67 | – | CCOC(=O)COC(=O)c1ccccc1OC(C)=O

The next lines start with the compound.

Structure (SMILES) | logP | solubility [µM]
CCNC(=O)COC(=O)c1ccccc1OC(C)=O | 0.9 | –
CCOC(=O)CN(C)C(=O)COC(=O)c1ccccc1OC(C)=O | 1.67 | –
CC(=O)Oc1ccccc1C(=O)OCC(=O)NCC(N)=O | -0.43 | –
CC(=O)Oc1ccccc1C(=O)OCC(=O)N(C)CC(N)=O | -0.46 | –
CC(=O)Oc1ccccc1C(=O)Oc1ccccc1 | 2.88 | 78 (≈ 20 µg/mL)
CC(=O)Oc1ccccc1C(=O)OCC(=O)N(C(C)C)C(C)C | 2.03 | –
CC(=O)Nc1ccc(OC(=O)c2ccccc2OC(C)=O)cc1 | 2.15 | 63.8 (≈ 20 µg/mL)
